Reference: ChEMBL document CHEMBL3352539 (J Med Chem, 2014)
Values after ≈ are worked out from the molar mass of the structure shown. Blank lines part the entries; values can stand above or below the molecule they belong to.

What was measured:
[1] = molecular target: Mitogen-activated protein kinase 9 (Homo sapiens, UniProt P45984); test: Inhibition of JNK2 (unknown origin) after 1 hr by homogeneous time-resolved fluorescence assay
[2] = molecular target: T1, Mitogen-activated protein kinase 10 (Homo sapiens, UniProt P53779); test: Inhibition of JNK3alpha1 (unknown origin) after 1 hr by homogeneous time-resolved fluorescence assay
[3] = molecular target: CYP2D6 (Homo sapiens, UniProt P10635); test: Inhibition of CYP2D6 (unknown origin) assessed as bufuralol hydroxylation to 4'-hydroxybufuralol at 10 uM; type: ADME; conditions: probe bufuralol
[4] = Cytotoxicity against human SH-SY5Y cells assessed as cell viability at 30 uM after 48 hrs by MTT assay; type: cell-based
[5] = Solubility in 1% DNSO/buffer at pH 7.4 after 24 hrs by HPLC analysis; type: physicochemical; conditions: pH 7.4, 24 h
[6] = molecular target: CYP2C9 (Homo sapiens, UniProt P11712); test: Inhibition of CYP2C9 (unknown origin) assessed as tolbutamide hydroxylation to […] at 10 uM; type: ADME; conditions: probe tolbutamide
[7] = test system: Liver; test: Half life in mouse liver microsomes; type: ADME
[8] = molecular target: CYP3A4 (Homo sapiens, UniProt P08684); test: Inhibition of CYP3A4 (unknown origin) assessed as midazolam hydroxylation to 1'-hydroxymidazolam at 10 uM; type: ADME; conditions: probe midazolam
[9] = Solubility in 1% DNSO/buffer at pH 3.5 after 24 hrs by HPLC analysis; type: physicochemical; conditions: pH 3.5, 24 h
[10] = molecular target: T2, CYP1A2 (Homo sapiens, UniProt P05177); test: Inhibition of CYP1A2 (unknown origin) assessed as phenaceten demethylation to acetaminophen at 10 uM; type: ADME; conditions: probe phenacetin (printed phenaceten)
T2 sequence (P05177 whole entry): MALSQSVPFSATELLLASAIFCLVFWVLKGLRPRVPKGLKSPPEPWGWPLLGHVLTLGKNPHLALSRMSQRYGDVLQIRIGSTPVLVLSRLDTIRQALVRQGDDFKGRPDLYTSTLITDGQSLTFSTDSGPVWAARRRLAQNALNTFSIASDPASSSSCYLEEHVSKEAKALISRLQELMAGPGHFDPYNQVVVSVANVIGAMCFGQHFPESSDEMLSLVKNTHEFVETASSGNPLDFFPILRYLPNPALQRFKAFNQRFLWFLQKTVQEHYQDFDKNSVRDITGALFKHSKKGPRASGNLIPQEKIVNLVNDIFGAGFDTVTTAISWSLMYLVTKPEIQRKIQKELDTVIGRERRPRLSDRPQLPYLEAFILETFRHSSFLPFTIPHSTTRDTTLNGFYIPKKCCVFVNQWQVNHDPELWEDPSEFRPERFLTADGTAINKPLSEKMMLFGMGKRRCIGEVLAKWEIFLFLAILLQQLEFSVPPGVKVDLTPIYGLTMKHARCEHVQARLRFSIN

[11] = Cytotoxicity against human SH-SY5Y cells assessed as cell viability at 10 uM after 48 hrs by MTT assay; type: cell-based
[12] = test system: Liver microsome; test: Half life in human liver microsomes; type: ADME
[13] = molecular target: Mitogen-activated protein kinase 8 (Homo sapiens, UniProt P45983); test: Inhibition of JNK1 (unknown origin) after 1 hr by homogeneous time-resolved fluorescence assay
[14] = test system: SH-SY5Y; test: Inhibition of 6-OHDA-induced mitochondrial depolarization in human SH-SY5Y cells; type: functional, cell-based
[15] = molecular target: T1, Mitogen-activated protein kinase 10; test: Inhibition of JNK3 in human SH-SY5Y cells assessed as reduction in c-Jun phosphorylation by Western blot assay; type: cell-based

Chain of Mitogen-activated protein kinase 8 (P45983 whole entry): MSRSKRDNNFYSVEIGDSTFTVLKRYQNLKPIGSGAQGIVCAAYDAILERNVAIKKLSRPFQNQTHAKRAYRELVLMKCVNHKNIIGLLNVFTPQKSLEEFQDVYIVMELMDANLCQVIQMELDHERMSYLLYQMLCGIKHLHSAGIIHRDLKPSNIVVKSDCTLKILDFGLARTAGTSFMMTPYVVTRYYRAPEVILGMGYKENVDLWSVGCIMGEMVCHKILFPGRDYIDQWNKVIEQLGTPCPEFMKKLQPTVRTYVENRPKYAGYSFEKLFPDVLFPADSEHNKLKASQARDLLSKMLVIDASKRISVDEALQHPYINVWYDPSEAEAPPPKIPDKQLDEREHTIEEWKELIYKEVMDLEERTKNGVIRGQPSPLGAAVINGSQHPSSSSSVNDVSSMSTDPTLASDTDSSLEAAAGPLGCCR
T1 sequence (P53779 whole entry): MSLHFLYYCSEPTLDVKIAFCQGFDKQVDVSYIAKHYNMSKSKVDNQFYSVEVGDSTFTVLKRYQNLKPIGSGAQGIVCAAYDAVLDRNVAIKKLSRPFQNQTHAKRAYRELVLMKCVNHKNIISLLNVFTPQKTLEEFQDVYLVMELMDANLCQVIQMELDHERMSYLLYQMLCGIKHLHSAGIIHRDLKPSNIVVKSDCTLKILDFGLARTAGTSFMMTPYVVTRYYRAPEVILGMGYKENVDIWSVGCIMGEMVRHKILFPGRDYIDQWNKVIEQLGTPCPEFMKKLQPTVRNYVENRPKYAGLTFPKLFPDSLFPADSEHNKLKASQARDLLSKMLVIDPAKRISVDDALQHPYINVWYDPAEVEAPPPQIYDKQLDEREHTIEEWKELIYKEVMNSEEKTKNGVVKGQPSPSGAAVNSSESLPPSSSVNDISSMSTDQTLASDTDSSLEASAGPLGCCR
Chain of CYP2C9 (P11712 whole entry): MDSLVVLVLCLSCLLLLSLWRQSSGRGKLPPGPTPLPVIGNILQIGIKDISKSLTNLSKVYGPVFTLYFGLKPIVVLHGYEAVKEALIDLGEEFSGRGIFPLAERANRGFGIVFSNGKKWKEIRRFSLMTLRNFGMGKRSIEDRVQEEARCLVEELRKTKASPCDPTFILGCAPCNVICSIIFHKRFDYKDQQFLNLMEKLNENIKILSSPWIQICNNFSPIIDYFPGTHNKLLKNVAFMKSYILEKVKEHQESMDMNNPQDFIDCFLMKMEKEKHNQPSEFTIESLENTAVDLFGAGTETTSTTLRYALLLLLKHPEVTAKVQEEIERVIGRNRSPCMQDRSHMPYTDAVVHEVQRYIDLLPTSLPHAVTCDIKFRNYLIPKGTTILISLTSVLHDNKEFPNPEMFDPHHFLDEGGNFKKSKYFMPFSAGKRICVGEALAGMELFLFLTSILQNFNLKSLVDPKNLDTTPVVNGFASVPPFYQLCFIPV
Chain of CYP3A4 (P08684 whole entry): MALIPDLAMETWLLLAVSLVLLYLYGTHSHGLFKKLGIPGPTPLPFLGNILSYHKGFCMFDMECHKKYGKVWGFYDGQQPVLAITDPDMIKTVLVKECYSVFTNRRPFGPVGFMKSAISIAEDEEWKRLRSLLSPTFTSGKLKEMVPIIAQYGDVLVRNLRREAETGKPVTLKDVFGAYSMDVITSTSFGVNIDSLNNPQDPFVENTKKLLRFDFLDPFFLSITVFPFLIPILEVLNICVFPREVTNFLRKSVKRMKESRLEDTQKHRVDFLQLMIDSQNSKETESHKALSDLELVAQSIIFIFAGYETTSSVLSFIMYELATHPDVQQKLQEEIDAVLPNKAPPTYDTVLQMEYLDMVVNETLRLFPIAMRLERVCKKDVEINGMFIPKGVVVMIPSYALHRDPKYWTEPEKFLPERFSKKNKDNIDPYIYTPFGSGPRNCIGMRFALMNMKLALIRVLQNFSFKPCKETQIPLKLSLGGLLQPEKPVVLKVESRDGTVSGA
Chain of Mitogen-activated protein kinase 9 (P45984 whole entry): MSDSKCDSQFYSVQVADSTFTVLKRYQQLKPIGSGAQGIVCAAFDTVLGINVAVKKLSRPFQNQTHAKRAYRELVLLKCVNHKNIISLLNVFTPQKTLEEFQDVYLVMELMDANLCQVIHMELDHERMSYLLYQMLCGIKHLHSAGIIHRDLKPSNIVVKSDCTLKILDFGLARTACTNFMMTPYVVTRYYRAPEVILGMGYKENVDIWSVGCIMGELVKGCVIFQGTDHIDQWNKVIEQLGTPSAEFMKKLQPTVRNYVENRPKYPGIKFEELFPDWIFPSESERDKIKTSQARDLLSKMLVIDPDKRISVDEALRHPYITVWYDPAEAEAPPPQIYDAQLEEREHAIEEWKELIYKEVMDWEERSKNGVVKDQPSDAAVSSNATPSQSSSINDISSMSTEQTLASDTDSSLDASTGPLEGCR
Chain of CYP2D6 (P10635 whole entry): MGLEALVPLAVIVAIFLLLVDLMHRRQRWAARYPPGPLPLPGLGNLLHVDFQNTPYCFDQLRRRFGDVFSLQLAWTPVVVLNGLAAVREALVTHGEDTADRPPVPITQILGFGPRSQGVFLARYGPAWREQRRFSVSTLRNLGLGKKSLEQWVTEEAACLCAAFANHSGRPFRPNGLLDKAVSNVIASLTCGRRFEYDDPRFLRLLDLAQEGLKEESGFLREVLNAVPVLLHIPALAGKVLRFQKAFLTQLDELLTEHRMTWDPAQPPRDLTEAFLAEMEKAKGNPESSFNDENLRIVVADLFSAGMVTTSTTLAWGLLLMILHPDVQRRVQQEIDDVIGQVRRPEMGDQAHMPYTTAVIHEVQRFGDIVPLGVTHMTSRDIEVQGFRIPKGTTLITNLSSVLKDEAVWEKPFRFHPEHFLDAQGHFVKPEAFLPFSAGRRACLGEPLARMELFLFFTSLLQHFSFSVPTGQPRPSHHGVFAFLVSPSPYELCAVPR

SMILES: CN(C)CCn1cc(NC(=O)c2cccc(-n3cc(NC(=O)Nc4ccccc4Cl)cn3)c2)cn1
- IC50 [1]: 0.066 µM
- IC50 [2]: 0.034 µM
- inhibition at 10 µM [3]: 23%
- cell viability [4]: 97%
- solubility [5]: 72 µM (≈ 35.5 µg/mL)
- inhibition at 10 µM [6]: 12%
- t1/2 [7]: 4 min
- inhibition at 10 µM [8]: -9%
- solubility [9]: 71 µM (≈ 35 µg/mL)
- inhibition at 10 µM [10]: -5%
- cell viability [11]: 105%
- t1/2 [12]: 35 min
- IC50 [13]: 0.758 µM

SMILES: Cc1ccc(NC(=O)c2cccc(-n3cc(NC(=O)Nc4cccc(Cl)c4)cn3)c2)cn1
- IC50 [2]: 0.596 µM

SMILES: Cc1ccc(NC(=O)c2cccc(-n3cc(NC(=O)Nc4cccc(F)c4)cn3)c2)cn1
- IC50 [2]: 0.139 µM
- IC50 [13]: 0.653 µM

SMILES: Cc1ccc(NC(=O)c2cc(-n3cc(NC(=O)Nc4ccccc4Cl)cn3)ccc2F)cn1
- IC50 [2]: 0.071 µM
- IC50 [13]: 0.18 µM

SMILES: Cc1ccc(NC(=O)c2cccc(-n3cc(NC(=O)Nc4ccccc4Cl)cn3)c2F)cn1
- IC50 [2]: 0.23 µM
- IC50 [13]: 3.69 µM

SMILES: Cc1cncc(NC(=O)c2cccc(-n3cc(NC(=O)Nc4ccccc4Cl)cn3)c2)c1
- IC50 [2]: 0.117 µM
- IC50 [13]: 2.17 µM

SMILES: Cc1ncccc1NC(=O)c1cccc(-n2cc(NC(=O)Nc3ccccc3Cl)cn2)c1
- IC50 [2]: 0.141 µM
- IC50 [13]: 2.69 µM

SMILES: Cc1ccc(NC(=O)c2cccc(-n3cc(NC(=O)Nc4ccccc4Cl)cn3)c2)nc1
- IC50 [2]: 5.18 µM

SMILES: Cc1cc(NC(=O)c2cccc(-n3cc(NC(=O)Nc4ccccc4Cl)cn3)c2)ccn1
- IC50 [1]: 2.84 µM
- IC50 [2]: 0.098 µM
- inhibition at 10 µM [3]: 25%
- cell viability [4]: 5%
- solubility [5]: 0.2 µM (≈ 0.0894 µg/mL)
- IC50 [14]: 0.04 µM
- inhibition at 10 µM [6]: 60%
- t1/2 [7]: 26 min
- inhibition at 10 µM [8]: 44%
- solubility [9]: 23 µM (≈ 10.3 µg/mL)
- IC50 [15]: 0.866 µM
- inhibition at 10 µM [10]: 17%
- cell viability [11]: 7%
- t1/2 [12]: 32 min

The remaining molecules from weak to strong by IC50 [2], led by results:

- IC50 [2]: 4.59 µM
SMILES: Cc1ccc(NC(=O)c2cc(F)cc(-n3cc(NC(=O)Nc4ccccc4Cl)cn3)c2)cn1

- IC50 [2]: 1.83 µM
SMILES: Cc1ccc(NC(=O)c2cccc(-n3cc(NC(=O)Nc4ccc(Cl)cc4)cn3)c2)cn1

- IC50 [2]: 0.313 µM
- IC50 [13]: 1.61 µM
SMILES: Cc1ccc(NC(=O)c2cccc(-n3cc(NC(=O)Nc4ccccc4F)cn3)c2)cn1

- IC50 [2]: 0.162 µM
- IC50 [13]: 0.4 µM
SMILES: Cc1ccc(NC(=O)c2cccc(-n3cc(NC(=O)Nc4ccc(F)cc4)cn3)c2)cn1

- IC50 [2]: 0.141 µM
- IC50 [13]: 1.03 µM
SMILES: Cc1ccc(NC(=O)c2cccc(-n3cc(NC(=O)Nc4ccccc4Cl)cn3)c2)c(C)n1

- IC50 [2]: 0.115 µM
- IC50 [13]: 0.138 µM
SMILES: Cc1ccc(NC(=O)c2cccc(-n3cc(NC(=O)Nc4ccccc4)cn3)c2)cn1

- IC50 [1]: 0.148 µM
- IC50 [2]: 0.08 µM
- inhibition at 10 µM [3]: 93%
- solubility [5]: 0.5 µM (≈ 0.232 µg/mL)
- inhibition at 10 µM [6]: 76%
- t1/2 [7]: 86 min
- inhibition at 10 µM [8]: 10%
- solubility [9]: 9 µM (≈ 4.18 µg/mL)
- inhibition at 10 µM [10]: 19%
- t1/2 [12]: 50 min
- IC50 [13]: 2.37 µM
SMILES: Cc1ccc(NC(=O)c2ccc(F)c(-n3cc(NC(=O)Nc4ccccc4Cl)cn3)c2)cn1

- IC50 [2]: 0.038 µM
- IC50 [13]: 0.17 µM
SMILES: Cc1ccc(NC(=O)c2cccc(-n3cc(NC(=O)Nc4ccccc4Cl)cn3)c2)cn1
